The results in this text go back to ChEMBL document CHEMBL1158321, “In vitro anti-HIV activity of biflavonoids isolated from Rhus succedanea and Garcinia multiflora” (J Nat Prod, 1997).

Test [1] concerns the target Human immunodeficiency virus type 1 reverse transcriptase (Human immunodeficiency virus 1, UniProt Q72547). The test is described as follows: (§1) Inhibition of HIV1 recombinant reverse transcriptase p66/p51 expressed in Escherichia coli.
The target in test [2] is Human immunodeficiency virus type 1 reverse transcriptase (Human immunodeficiency virus 1) (UniProt Q72547). The test is described as follows: Inhibition of HIV1 recombinant reverse transcriptase p66/p51 expressed in Escherichia coli at 200 ug/mL.
Test [3] can be described thus: Selectivity index, ratio of IC50 for human PBMC to EC50 for HIV1 LAV-1.
Test [4] has as its system Human immunodeficiency virus 1. The test is described as follows: Antiviral activity against HIV1 LAV-1 in PHA-stimulated human PBMC after 6 days. The conditions noted are these: Human immunodeficiency virus 1, LAV-1, 144 h. It is filed as functional, organism-based.
Test [5] has as its system PBMC. The test is described as follows: Cytotoxicity against uninfected PHA-stimulated human PBMC assessed as thymidine incorporation after 24 hrs […]. It is filed as cell-based. A general note: Incorporation of labelled thymidine or its analogues reports DNA synthesis.
The target of test [6] is Human immunodeficiency virus type 1 reverse transcriptase (Human immunodeficiency virus 1) (UniProt Q72547). The description is as §1. On the set-up: concentration or dose not given beside the values. The conditions noted are these: concentration not given here.

For the compound `O=C1C[C@@H](c2ccc(O)c(O)c2)Oc2c1c(O)cc(O)c2[C@H]1C(=O)c2c(O)cc(O)cc2O[C@@H]1c1ccc(O)cc1`, the IC50 in test [1] amounted to 170 µM. For the same compound, in test [2], the inhibition is 96%.

Consider `O=C1C[C@@H](c2ccc(O)cc2)Oc2c1c(O)cc(O)c2[C@H]1C(=O)c2c(O)cc(O)cc2O[C@@H]1c1ccc(O)cc1`, for which, in test [3], the “Selectivity Index” value came to 2.3. Further, the IC50 in test [1] is 236 µM; in test [5], 88 µM. In test [4], this compound returned an EC50 of 38 µM. Further, in test [2], the inhibition was 86%.

On to `COc1ccc(-c2cc(=O)c3c(OC)cc(OC)c([C@@H]4C(=O)c5c(OC)cc(OC)cc5O[C@H]4c4ccc(OC)cc4)c3o2)cc1`, for which the inhibition in test [6] is < 30%; in test [2] it was 0%.

Take `COc1ccc([C@@H]2CC(=O)c3c(OC)cc(OC)c([C@H]4C(=O)c5c(OC)cc(OC)cc5O[C@@H]4c4ccc(OC)cc4)c3O2)cc1`: in test [2], the inhibition was found to be 0%.

With `COc1ccc([C@@H]2Oc3cc(OC)cc(OC)c3C(=O)[C@H]2c2c(OC)cc(OC)c3c(=O)cc(-c4ccc(OC)c(OC)c4)oc23)cc1`, the inhibition is < 30% in test [6] and 0% in test [2].

With `Cc1ccc([C@@H]2CC(=O)c3c(cc(O)c(-c4c(O)cc(O)c5c4O[C@H](c4ccc(O)cc4)CC5=O)c3O)O2)cc1`, the inhibition was < 30% in test [6] and 14.1% in test [2].

As to `O=C1C[C@@H](c2ccc(O)cc2)Oc2c1c(O)cc(O[C@@H]1O[C@H](CO)[C@@H](O)[C@H](O)[C@H]1O)c2[C@H]1C(=O)c2c(O)cc(O)cc2O[C@@H]1c1ccc(O)cc1`, the inhibition in test [2] was 1.5%.

`O=C1C[C@@H](c2ccc(O)cc2)Oc2cc(O)c(-c3c(O)cc4c(c3O)C(=O)C[C@@H](c3ccc(O)cc3)O4)c(O)c21`: the inhibition is < 30% in test [6] and 22.1% in test [2].

As for `O=C1C[C@@H](c2ccc(O)cc2)Oc2cc(O)cc(O)c21`, the inhibition in test [6] was found to be 30%; in test [2], 34.9%.

In the case of `O=C1c2c(O)cc(O)cc2O[C@@H](c2ccc(O)cc2)[C@@H]1c1c(O)cc(O)c2c(=O)cc(-c3ccc(O)cc3)oc12`, the inhibition in test [6] turned out to be 30%; in test [2] it was 45.3%.

For `O=c1cc(-c2ccc(O)c(-c3c(O)cc(O)c4c(=O)cc(-c5ccc(O)cc5)oc34)c2)oc2cc(O)cc(O)c12` [AMENTOFLAVONE], the “Selectivity Index” value in test [3] is reported as <1. Besides, the IC50 in test [1] is 119 µM; in test [5] it was 35 µM. The concentration giving a half-maximal response (EC50) in test [4] came to 94 µM. For the same compound, the inhibition in test [2] worked out at 97.3%.

Turning to `O=c1cc(-c2ccc(O)cc2)oc2cc(O)cc(O)c12` [APIGENIN], the IC50 in test [1] worked out at 443 µM. In addition, the inhibition in test [2] worked out at 72%.

Turning to `O=c1cc(-c2ccc(Oc3c(O)cc4oc(-c5ccc(O)cc5)cc(=O)c4c3O)cc2)oc2cc(O)cc(O)c12` [HINOKIFLAVONE], the “Selectivity Index” value in test [3] came out at 2.2. Moreover, the values for the IC50 in test [1] and in test [5] were 62 µM and 9 µM, respectively. This compound also yielded an EC50 in test [4] of 4.1 µM. In addition, the inhibition in test [2] was 89.9%.

`O=C1c2c(O)cc(O)cc2O[C@H](c2ccc(O)cc2)[C@H]1c1c(O)cc(O)c2c(=O)cc(-c3ccc(O)c(O)c3)oc12` [MORELLOFLAVONE]: the “Selectivity Index” value in test [3] stood at 12. In addition, the IC50 in test [1] was 116 µM; in test [5], 82 µM. Also, the midpoint of the response in test [4], the EC50, lay at 6.9 µM. In test [2], the inhibition is 99.2%.

For `O=c1cc(-c2ccc(O)c(-c3c(O)cc4oc(-c5ccc(O)cc5)cc(=O)c4c3O)c2)oc2cc(O)cc(O)c12` [ROBUSTAFLAVONE], in test [3], the “Selectivity Index” value is reported as <1. Moreover, the IC50 in test [1] is 65 µM; in test [5], 77 µM. Also, in test [4], the EC50 was > 100 µM. In addition, the inhibition in test [2] was determined as 91.4%.

On to `Cc1cn([C@H]2C[C@H](N=[N+]=[N-])[C@@H](CO)O2)c(=O)[nH]c1=O` [ZIDOVUDINE], for which, in test [3], the “Selectivity Index” value is recorded as >10. In addition, in test [5], the IC50 was > 100 µM.

Usually IC50 stands for the concentration that gives 50% inhibition. Broadly, the inhibition is the change of the read-out against control, counted positive when it falls. Broadly, the EC50 is the concentration at which the effect is half-maximal.
